Test results published in publication PMC9655717, “New Molecules of Diterpene Origin with Inhibitory Properties toward α-Glucosidase” (International Journal of Molecular Sciences, 2022).
≈ marks a conversion by molar mass, not a printed value.

Tests used:
[1] = target: T1, yeast α-GLy (α-glucosidase, Sigma G0660) (Saccharomyces cerevisiae, UniProt P53341); assay: biochemical; type: biochemical; conditions: yeast α-glucosidase, 37°C, pH 6.8; read-out: IC50 ± SE, α-glucosidase inhibition
T1 construct: purchased Sigma G0660
T1 sequence (P53341 whole entry): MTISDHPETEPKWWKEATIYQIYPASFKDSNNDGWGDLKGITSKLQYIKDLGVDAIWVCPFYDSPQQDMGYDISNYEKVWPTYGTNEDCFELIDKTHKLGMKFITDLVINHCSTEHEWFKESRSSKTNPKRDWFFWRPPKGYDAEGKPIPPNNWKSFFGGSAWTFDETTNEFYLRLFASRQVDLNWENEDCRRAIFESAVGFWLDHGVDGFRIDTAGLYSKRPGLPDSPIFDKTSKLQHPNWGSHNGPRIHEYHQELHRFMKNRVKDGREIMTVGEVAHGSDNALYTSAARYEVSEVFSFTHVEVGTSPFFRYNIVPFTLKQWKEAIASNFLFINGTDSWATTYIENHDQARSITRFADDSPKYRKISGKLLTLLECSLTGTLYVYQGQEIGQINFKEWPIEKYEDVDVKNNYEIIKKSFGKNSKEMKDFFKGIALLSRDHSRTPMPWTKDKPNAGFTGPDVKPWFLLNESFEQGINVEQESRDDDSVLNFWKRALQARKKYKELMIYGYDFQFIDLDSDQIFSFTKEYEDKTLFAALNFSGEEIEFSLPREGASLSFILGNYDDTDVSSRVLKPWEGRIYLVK
Experimental: S1. Materials and Methods […]
glucosidase inhibition assay. α-Glucosidase enzyme inhibition assay was carried out in a 96-well microplate. The method’s principle based on the hydrolyzed reaction of 4-nitrophenyl-α-D-glucopiranoside with α-glucosidase enzyme into yellow 4- […]
p-Nitrophenyl α-D-Glucoside a- Gl ucosidas e α-D-Glucose + p- Nitrophenol α-Glucosidase inhibitory activity assay was performed following the modified method of Pistia Brueggeman and Hollingsworth with slight modification. Quinopimaric […]
concentrations of 256, 64, 16, 4 and 1 µg/mL. In a 96-well plate, a reaction mixture containing 20 μL of phosphate buffer (100 mM; pH 6.8), 20 μL of α-glucosidase (0.3 U/mL, Sigma G0660) (this concentration was determined by a series of α-glucosidase […]
linearity between the enzyme concentration and the absorbance of yellow color mixture after reaction which was approximately 5-fold higher than the back ground and at least […]
concentrations was pre-incubated for 10 min at 37°C. Then 20 μL of […] p-nitrophenyl α-D-glucopyranoside (Sigma N1377) was added to the mixture as a substrate. After further incubation at 37°C for 30 min, the reaction was stopped by adding 80 μL of 0.1 […]
solution were prepared using the phosphate buffer […]; pH 6.8. […]
as a positive control and water as negative control. The yellow color produced was quantitated by colorimetric analysis and reading the absorbance at 410 nm. Each experiment was performed in triplicates, along with appropriate blanks. The solvent DMSO was use as negative control to evaluate its effect on α-glucosidase activity. […]
or substrate in negative control. Back ground was determined by volume of buffer as […]
The % inhibition has been obtained using the formula:
% inhibition = {Absorbance (control) –Absorbance (sample)}/Absorbance (control) IC50 value is defined as the concentration of samples inhibiting 50% of α-glucosidase activity under the stated assay conditions. […]

MTT cytotoxicity assay = conditions: human
Experimental: The cytotoxic activity of compounds was evaluated against four cancer cell lines KB, Hep-G2, Lu-1 and MCF-7, using colorimetric MTT assay. […]
MTT assay was used to determine the cytotoxic activity of compounds with human cancer cell lines acquired from the American Type Culture Collection (ATCC): epidermoid carcinoma (KB, ATCC number CCL-17), hepatocellular carcinoma (HepG2, ATCC number HB-8065), lung adenocarcinoma LU-1 (ATCC number HTB - 57TM), breast adenocarcinoma MCF-7 (ATCC number HTB - 22TM. Cells were cultured in medium DMEM supplemented with 10% Fetal bovine serum (FBS), 1% Penicillin and Streptomycin and 1% L-glutamine, under a humidified atmosphere of 5% CO2 at 37°C.
Compounds were dissolved in DMSO at 40 mg/mL and a series of dilutions for each compound was prepared to final concentrations of 256, 64, 16, 4 and 1 μg/mL. Cells were separated with trypsin and seeded in each well with 3 x10^4 cells per ml and were treated with sample different concentrations on 96-well plates. Untreated cells represented the controls. After 72h of treatment, an MTT solution (10 μl, 5 mg/mL) of phosphate buffer was added to each well for 4 h until intracellular purple formazan crystals are visible. Remove MTT and add DMSO solution (100 μL). The optical density of the solution was determined by Epoch™ Microplate Spectrophotometer at 540 nm. The inhibition ratio was calculated based on the optical densities from the three replicate […]
are evaluated to have cytotoxic activity.

C#CCOC(=O)C1(C)CCCC2(C)C1CCC13C=C(C(C)C)C(CC12)c1c(O)cc2c(C(=O)OC)c(C)[nH]c2c13 (centres unmarked) [Compound 45, Methyl 7-propynyl 1-hydroxy-13-isopropyl-7,10a,2′-trimethyl-5,6,6b,7,8,9,10,10a,10b,11,12,13-dodecahydro-12,4b-ethenophenanthro [2,1-g]indole-7,1′-dicarboxylate]
IC50 [1]: 150 ± 8 nM
IC50 at 72 h (MTT cytotoxicity assay; Hep-G2 hepatocellular carcinoma cells (ATCC HB-8065)): 47.2 ± 1 µg/mL (≈ 86.8 µM)
IC50 at 72 h (MTT cytotoxicity assay; KB epidermoid carcinoma cells (ATCC CCL-17)): 42.2 ± 0.84 µg/mL (≈ 77.6 µM)
IC50 at 72 h (MTT cytotoxicity assay; Lu-1 lung adenocarcinoma cells (ATCC HTB-57)): 16 ± 0.36 µg/mL (≈ 29.4 µM)
IC50 at 72 h (MTT cytotoxicity assay; MCF-7 breast adenocarcinoma cells (ATCC HTB-22)): 30.2 ± 0.8 µg/mL (≈ 55.6 µM)
